From publication PMC10518255, “A first-in-class pan-lysyl oxidase inhibitor impairs stromal remodeling and enhances gemcitabine response and survival in pancreatic cancer” (Nature Cancer, 2023)
“And” between values parts separate entries of the source, which are not always exact repeats. Equal entries are not always repeated.

Tests used:
KPC PDAC tumors = assay: Bulk modulus (stiffness) by unconfined compression testing of end-point KPC tumors; format: in vivo, mouse; set-up: key to Bulk modulus (stiffness) by unconfined compression testing: bulk elastic modulus in kPa; settings: for tumor bulk modulus (stiffness): end-point KPC tumors; for Bulk modulus (stiffness) by unconfined compression testing: endpoint PDAC tumours, individual tumours
Protocol: Fig. 4 PXS-5505 administered in a KPC in vivo survival study. a, Schematic of the KPC in vivo survival study. Presence of a primary tumor in KPC mice was confirmed by two independent researchers (positive diagnosis) before commencement of daily treatment (Tx) on one of four treatment arms as follows: vehicle, 0.9% saline; Gem, twice-weekly gemcitabine (100 mg kg^−1 i.p.); PXS-5505, daily PXS-5505 at 20 mg kg^−1 i.p.; and PXS-5505 + Gem, daily PXS-5505 at 20 mg kg^−1 i.p. + twice-weekly gemcitabine (100 mg kg^−1 i.p.). b, Table of median survival (since diagnosis/commencement of treatment) across the four treatment groups (n = 30 biologically independent animals (vehicle), n = 31 biologically independent animals (Gem), n = 36 biologically independent animals (PXS-5505), n = 46 biologically independent animals (PXS-5505 + Gem)). c, Kaplan–Meier curves for overall survival across treatment arms (n = 30 biologically independent animals (vehicle), n = 31 biologically independent animals (Gem), n = 36 biologically independent animals (PXS-5505), n = 46 biologically independent animals (PXS-5505 + Gem)). P values determined by log-rank (Mantel–Cox) test. d, Representative maximum intensity projections of SHG multiphoton imaging for tumors from each treatment group (n = 1 FOV taken from one biologically independent animal per group) at end point (scale bars, 100 μm) and quantification of SHG peak signal intensity (n = 5 biologically independent animals per group and five FOV per animal). Data are mean ± s.d. […] Quantification of metastases (n = 18 biologically independent animals (vehicle), n = 18 biologically independent animals (Gem), n = 17 biologically independent animals (PXS-5505), n = 15 biologically independent animals (PXS-5505 + Gem)). Data are mean ± s.d.
Unconfined compression of in vivo tissue samples was carried out on 2–3-mm cross-sectional slices using a TA Instruments Dynamic Hybrid Rheometer (DHR-3, TA Instruments). Tissue samples were placed between upper and lower parallel plate geometries. A constant linear compressive rate of 5 µm s^−1 was applied to the samples and axial force (N) and gap (mm) were collected every 0.01 s. Data were processed and a stress–strain curve for each replicate was obtained. Bulk elastic modulus (kPa) was obtained as the gradient of the linear region of the stress–strain curve corrected for cross-sectional area of sample. Data points represent individual biological replicates.

CD31 = assay: Immunohistochemistry of end-point KPC tumors: tumor vasculature; format: in vivo, mouse; settings: for Quantification of tumour vasculature (CD31 positive staining): Extended Data 6E, KPC tumours at endpoint, individual FOV
Protocol: All tissues or matrices, including patient TMAs, were fixed in 10% buffered formalin and embedded in paraffin. The 4-μm sections of samples were deparaffinized with xylene and rehydrated in graded ethanol washes. For immunohistochemistry, Bond Dewax Solution (AR9222) was used. Antigen retrieval was performed using Bond RX H2(30) protocol: HIER 30 min ER1 (citrate pH 6) OR ER2 (EDTA pH 9) at 100 °C. Slides were quenched in BOND Polymer Refine Detection (Leica Biosystems DS9800). […] Slides were digitized on an Aperio slide scanner and representative areas per tumor acquired and analyzed by researchers blinded to the conditions of the experiment.
Extended Data Fig. 6 PXS-5505 in combination with gemcitabine in a KPC model. a. Quantification of proliferating cells (Ki67 positive nuclear staining) in KPC tumors at end point, treated as indicated. 5 fields of view (500 μm × 500 μm) per mouse and 10 mice per cohort were scored. […] Quantification of percent coverage of αSMA positive staining in KPC tumors at end point, treated as indicated. 3 fields of view (1000 μm × 1000 μm) per mouse and 10 mice per cohort were scored. […] Quantification of percent coverage of PDGFR-ß positive staining in KPC tumors at end point, treated as indicated. 3 fields of view (1000 μm × 1000 μm) per mouse and 10 mice per cohort were scored. […] Quantification of pMLC2 positive staining in stromal regions of KPC tumors at end point, treated as indicated. 3 fields of view (500 μm × 500 μm) per mouse and 10 mice per cohort were scored. […] Quantification of tumor vasculature (CD31 positive staining) in KPC tumors at end point, treated as indicated. 3 fields of view (1000 μm × 1000 μm) per mouse and 10 mice per cohort were scored. […] Quantification of STAT3 activation (pSTAT3 positive nuclear staining) in KPC tumors at end point, treated as indicated. 3 fields of view (1000 μm × 1000 μm) per mouse and 5 mice per cohort were scored. […] Scale bars = 100 μm. g Quantification of macrophage infiltration (F4/80 positive staining) in KPC tumors at end point, treated as indicated. […]

In the case of Nc1ccn([C@@H]2O[C@H](CO)[C@@H](O)C2(F)F)c(=O)n1 [Gem, gemcitabine], the “tumor bulk modulus (stiffness)” value (KPC PDAC tumors) is reported as 20.0 kPa, the “Bulk modulus (stiffness) by unconfined compression testing” value (KPC PDAC tumors) is reported as 26.381 and 11.231 and 14.142 and 18.28 and 20.014 and the “Quantification of tumour vasculature (CD31 positive staining)” value (CD31) is reported as 0.7299 and 0.7671 and 1.094 and 0.1238 and 0.9491 and 1.4885 and 2.0289 and 0.3988 and 1.306 and 1.1528 and 0.8514 and 0.5685 and 1.3159 and 1.5073 and 0.7452 and 2.699 and 3.9605 and 1.2028 and 1.6599 and 0.7292 and 1.2066 and 0.7182 and 1.9396 and 0.8792 and 0.4356 and 0.528 and 0.6666 and 0.9682 and 1.0035 and 1.0817. For the same compound, the CD31 positivity (CD31; KPC tumors at end point) was “moderately reduce CD31 positivity”.

For Cl.Cl.NC/C=C(\F)CS(=O)(=O)c1cccc2cccnc12.O [PXS-5505, (Z)-3-fluoro-4-(quinolin-8-ylsulfonyl)but-2-en-1-amine dihydrochloride monohydrate], the “tumor bulk modulus (stiffness)” value (KPC PDAC tumors) was “moderate reduction in stiffness”, the “Bulk modulus (stiffness) by unconfined compression testing” value (KPC PDAC tumors) was 1.01 and 4.478 and 8.389 and 5.347 and 1.487 and the “Quantification of tumour vasculature (CD31 positive staining)” value (CD31) was 1.4669 and 1.052 and 0.7167 and 1.5204 and 1.7208 and 1.2357 and 2.5692 and 2.5978 and 2.6637 and 1.5089 and 2.7227 and 2.2335 and 3.0895 and 2.1825 and 1.7906 and 0.381 and 0.3483 and 0.8882 and 1.0908 and 1.998 and 0.3729 and 1.0662 and 0.7486 and 0.544 and 1.3597 and 1.732 and 1.5892 and 0.9619 and 1.2706 and 1.8307.
